# In patent US20060063143A1, “Immortalized hypothalamic neuronal cell lines” (priority 2002, published 2006):
# B1: leptin: leptin (recombinant mouse, Bachem Scientific) (protein, UniProt P41160 22-167, looked up)
# Leptin: VPIQKVQDDTKTLIKTIVTRINDISHTQSVSAKQRVTGLDFIPGLHPILSLSKMDQTLAVYQQVLTSLPSQNVLQIANDLENLRDLLHLLAFSKSCSLPQTSGLQKPESLDGVLEASLYSTEVVALSRLQGSLQDILQQLDVSPEC
# Tests used:
# Format in all cases: cell-based, mouse
# [1] = test system: NPY-17 (N-38) cells; test: Calcium imaging (Fura2): intracellular calcium response to depolarization by KCl; settings: KCl 60 mM, NPY-17 cells
# Procedure: FIG. 15 illustrates the neurosecretory response of NPY-17 (N 38) cells. The effect of the addition of KCl (60 mM) on intracellular calcium levels ([Ca2+]i) for the cells pictured is shown. Images of cells shown in the two panels on the right were obtained as per Example 5. Shown is a representative experiment from 6 experiments, n=116 cells in total (FIG. 15, left panel);
# Since many of the peptides and enzyme present in the individual cell lines are secretory products, one representative cell line, N-38 (Also known as NPY-17), was studied for its response to depolarization by addition of 60 mM KCl. […] NPY-17 neurons were plated in 60 mm plates. Fura-2/AM loaded GT1-7 neurons were continuously monitored by 340/380 ratiometric digital imaging pre (top right panel) and post (lower right panel) stimulation. […]
# Ca2+ imaging experiments were performed with Fura2 (Molecular Probes) using an Olympus IX70 inverted epifluorescence microscope, an Ultrapix camera with an EEV CCD37-10-1-019 chip, a monochromator, and a PC computer with Merlin imaging software (Life Science Resources) using standard Fura2 optics and imaging techniques. […] Intracellular free Ca2+ ([Ca2+]i) concentrations calculated using the Grynkiewicz equation, [Ca2+]i=Kd×□×(R−Rmin)/(Rmax−R) (52).
# [2] = test system: N38 hypothalmic cells; test: Microarray (Affymetrix oligonucleotide arrays) of TCAP-1 treated cells, genes regulated at 16 hours
# Procedure: RNAs isolated from treated and untreated cells were analyzed on oligonucleotide arrays representing 12,884 mouse genes (Affymetrix, http://www.affymetrix.com). Standard filtering (p<0.005) and hierarchical clustering algorithm (average linage method: GeneSpring software—Silicon Genetics) identified significant changes in the expression of 4, 841/12,885 genes with 166 genes showing 1.5 fold down-regulation and 35 genes up-regulation in the TCAP-1-treated cells compared to the untreated cells. […] A G-protein coupled receptor-related signal transduction pathway is indicated by the regulation of genes, CREM, AKAP8, AKAP95 and PDE6A. […] The upregulation in inducible nitric oxide (INOS), a intracellular voltage-gated chloride channel (CLCN3) and the serotonin transporter (SLC6A4) may reflect the down stream actions of cAMP-mediated signal cascade and indicates the potential for TCAP to be involved in neuronal signaling systems. A role in interneuron communication by TCAP is also indicated by the modulation of genes associated with the regulation of vesicle trafficking. Thus, the TCAP responsive cell lines can be used to screen for modulators of neuronal function that affect growth, differentiation and communication.
# The change in expression levels is indicated relative to the untreated control cell for the same time period of 16 hours. Values>1.5 fold or <0.70 fold were considered significant.
# [3] = test system: NPY-17 cells; test: Leptin responsiveness: proteomic (mass spectrometry) analysis of nuclear extracts; settings: 10^-7 M leptin, 20 hours, NPY-17 nuclear extracts, preliminary, +/- protein status
# Procedure: The NPY-17 cells also express leptin receptors and have been studied for leptin responsiveness using both gene array analysis and proteomic analysis. NPY-17 cells were treated with 10^-7 M leptin (recombinant mouse, Bachem Scientific) for 20 hours. Cells were washed with PBS and harvested through centrifugation. Nuclear extracts were prepared and exposed to mass spectrometry analysis. […] The analysis is not considered quantitative, but initially represents a +/− protein status (i.e. the protein is either present or absent in the control or leptin-treated sample).
# [4] = 1 nM TCAP-1, N38 cells, 16 hours post-treatment
# [5] = 1 nM TCAP-1, N38 cells, treated vs untreated
molecule,measurement,setting,value
[Cl-].[K+] [KCl],calcium mobilization,[1],significant increase
same,[Ca2+]i peak value,[1]; representative graph,~450 nM
"TCAP-1: teneurin C-terminal-associated peptide 1, SEQ ID NO 5 plus amidation signal GRR at C-terminus (QQLLGTGRVQGYDGYFVLSVEQYLELSDSANNIHFMRQSEI; C-terminal GRR amidation signal; Mouse TCAP1)",Fold change PTK7 (Receptor protein tyrosine kinase),"[2]; 1 nM TCAP-1, 16 hours, relative to untreated control, cluster Growth/Differentiation, probe 92325",1.53 fold
same,Fold change GDAP10 (Ganglioside induced diff. protein 10),"[2]; 1 nM TCAP-1, 16 hours, relative to untreated control, cluster Growth/Differentiation, probe 94192",1.62 fold
same,Fold change MMP10 (Matrix metalloproteinase 10),"[2]; 1 nM TCAP-1, 16 hours, relative to untreated control, cluster Growth/Differentiation, probe 94724",0.59 fold
same,Fold change DLP1/2 (DAB2 interacting protein),"[2]; 1 nM TCAP-1, 16 hours, relative to untreated control, cluster Growth/Differentiation, probe 97353",0.68 fold
same,Fold change P204 (Interferon activatable protein),"[2]; 1 nM TCAP-1, 16 hours, relative to untreated control, cluster Growth/Differentiation, probe 98466",1.85 fold
same,Fold change GAS5 (Growth arrest specific transcript),"[2]; 1 nM TCAP-1, 16 hours, relative to untreated control, cluster Growth/Differentiation, probe 98530",0.46 fold
same,Fold change INI1B (Integrase interacting protein 1B),"[2]; 1 nM TCAP-1, 16 hours, relative to untreated control, cluster Growth/Differentiation, probe 99924",0.48 fold
same,Fold change MMP1 (Matrix metalloproteinase 1),"[2]; 1 nM TCAP-1, 16 hours, relative to untreated control, cluster Growth/Differentiation, probe 100484",0.55 fold
same,Fold change MOP3 (Circadian rhythm regulator),"[2]; 1 nM TCAP-1, 16 hours, relative to untreated control, cluster Growth/Differentiation, probe 102382",1.57 fold
same,Fold change CRD-BP (CRD-binding protein),"[2]; 1 nM TCAP-1, 16 hours, relative to untreated control, cluster Growth/Differentiation, probe 102627",0.59 fold
same,Fold change CD95 (Fas antigen),"[2]; 1 nM TCAP-1, 16 hours, relative to untreated control, cluster Growth/Differentiation, probe 102921",0.61 fold
same,Fold change GBP3 (Guanylate binding protein),"[2]; 1 nM TCAP-1, 16 hours, relative to untreated control, cluster Growth/Differentiation, probe 103202",0.63 fold
same,Fold change CAI1 (Casein kinase II),"[2]; 1 nM TCAP-1, 16 hours, relative to untreated control, cluster Growth/Differentiation, probe 103441",0.61 fold
same,Fold change SSG1 (Steroid sensitive gene 1),"[2]; 1 nM TCAP-1, 16 hours, relative to untreated control, cluster Growth/Differentiation, probe 160298",0.62 fold
same,Fold change SDPR (Serum deprivation response protein),"[2]; 1 nM TCAP-1, 16 hours, relative to untreated control, cluster Growth/Differentiation, probe 160373",0.57 fold
same,Fold change ST7 (Suppressor of tumourigenicity),"[2]; 1 nM TCAP-1, 16 hours, relative to untreated control, cluster Growth/Differentiation, probe 160591",1.97 fold
same,Fold change PPAN (Peter Pan homologue),"[2]; 1 nM TCAP-1, 16 hours, relative to untreated control, cluster Growth/Differentiation, probe 160802",0.62 fold
same,Fold change P202 (202 interferon activatable protein),"[2]; 1 nM TCAP-1, 16 hours, relative to untreated control, cluster Growth/Differentiation, probe 161173",0.61 fold
same,Fold change MKI67 (Cell cycle protein regulator),"[2]; 1 nM TCAP-1, 16 hours, relative to untreated control, cluster Growth/Differentiation, probe 161931",1.70 fold
same,Fold change CLM2-B (Cytohesin-2),"[2]; 1 nM TCAP-1, 16 hours, relative to untreated control, cluster Processing, probe 93492",0.63 fold
same,Fold change ARF1 (ADP ribosylation factor 1),"[2]; 1 nM TCAP-1, 16 hours, relative to untreated control, cluster Processing, probe 95156",0.63 fold
same,Fold change YIPID (Rab-mediated membrane transport),"[2]; 1 nM TCAP-1, 16 hours, relative to untreated control, cluster Processing, probe 99675",1.88 fold
same,Fold change GP25L2 (gp25L brings cargo forward from ER),"[2]; 1 nM TCAP-1, 16 hours, relative to untreated control, cluster Processing, probe 100074",1.53 fold
same,Fold change AP4S1 (Adaptor related protein complex),"[2]; 1 nM TCAP-1, 16 hours, relative to untreated control, cluster Processing, probe 104561",1.52 fold
same,Fold change RAB10 (Ras oncogene homologue),"[2]; 1 nM TCAP-1, 16 hours, relative to untreated control, cluster Processing, probe 160149",1.62 fold
same,Fold change CAMIII (Calmodulin III),"[2]; 1 nM TCAP-1, 16 hours, relative to untreated control, cluster Signalling/Communication, probe 92631",0.53 fold
same,Fold change FNBX (Ferredoxin-NADP reductase),"[2]; 1 nM TCAP-1, 16 hours, relative to untreated control, cluster Signalling/Communication, probe 92754",1.61 fold
same,Fold change ALK3 (Bone morphogenic protein receptor),"[2]; 1 nM TCAP-1, 16 hours, relative to untreated control, cluster Signalling/Communication, probe 92767",0.60 fold
same,Fold change BMP4 (Bone morphogenic protein-4),"[2]; 1 nM TCAP-1, 16 hours, relative to untreated control, cluster Signalling/Communication, probe 93456",0.52 fold
same,Fold change IL1R (Interleukin 1 receptor),"[2]; 1 nM TCAP-1, 16 hours, relative to untreated control, cluster Signalling/Communication, probe 93914",0.60 fold
same,Fold change CLCN3 (Chloride channel protein 3),"[2]; 1 nM TCAP-1, 16 hours, relative to untreated control, cluster Signalling/Communication, probe 94465",1.66 fold
same,Fold change AKAP95 (A kinase anchor protein 95),"[2]; 1 nM TCAP-1, 16 hours, relative to untreated control, cluster Signalling/Communication, probe 95001",0.60 fold
same,Fold change GR (Glucocorticoid receptor),"[2]; 1 nM TCAP-1, 16 hours, relative to untreated control, cluster Signalling/Communication, probe 98818",0.66 fold
same,Fold change CREMβ1 (cAMP-responsive element modulator),"[2]; 1 nM TCAP-1, 16 hours, relative to untreated control, cluster Signalling/Communication, probe 100533",1.61 fold
same,Fold change PDE6A (cGMP Phosphodiesterase α),"[2]; 1 nM TCAP-1, 16 hours, relative to untreated control, cluster Signalling/Communication, probe 100696",1.68 fold
same,Fold change ERK1 (Mitogen activated protein kinase),"[2]; 1 nM TCAP-1, 16 hours, relative to untreated control, cluster Signalling/Communication, probe 101834",0.64 fold
same,Fold change BARK1 (β adrenorgic receptor kinase 1),"[2]; 1 nM TCAP-1, 16 hours, relative to untreated control, cluster Signalling/Communication, probe 104270",0.61 fold
same,Fold change INOS (Inducible nitric oxide synthetase),"[2]; 1 nM TCAP-1, 16 hours, relative to untreated control, cluster Signalling/Communication, probe 104420",1.50 fold
same,Fold change PCDHγ (protocadherin γ),"[2]; 1 nM TCAP-1, 16 hours, relative to untreated control, cluster Signalling/Communication, probe 160976",0.42 fold
same,Fold change TTF-1IP (TTF-1 interacting peptide),"[2]; 1 nM TCAP-1, 16 hours, relative to untreated control, cluster Signalling/Communication, probe 161019",0.50 fold
same,Fold change AKAP8 (A kinase anchor protein 8),"[2]; 1 nM TCAP-1, 16 hours, relative to untreated control, cluster Signalling/Communication, probe 161088",1.58 fold
same,Fold change SLC6A4 (Serotonin transporter),"[2]; 1 nM TCAP-1, 16 hours, relative to untreated control, cluster Signalling/Communication, probe 161695",1.53 fold
same,AKAP8 gene expression,[2]; [4],upregulation
same,AKAP95 gene expression,[2]; [4],Downregulation
same,CD95 gene expression,[2]; [4],significant decrease
same,EFK1 gene expression,[2]; [4],down regulated
same,GAS5 gene expression,[2]; [4],significant decrease
same,GDAP10 gene expression,[2]; [4],upregulated
same,MK167 gene expression,[2]; [4],upregulated
same,MOP3 gene expression,[2]; [4],upregulated
same,RGL gene expression,[2]; [4],down regulated
same,SDPR gene expression,[2]; [4],significant decrease
same,inducible nitric oxide (INOS) gene expression,[2]; [4],upregulation
same,intracellular voltage-gated chloride channel (CLCN3) gene expression,[2]; [4],upregulation
same,serotonin transporter (SLC6A4) gene expression,[2]; [4],upregulation
same,genes showing 1.5 fold down-regulation,[2]; [5],166
same,genes showing up-regulation,[2]; [5],35
B1,proteins altered by leptin treatment,[3],approximately 250
